The source of these data is patent US8461183B2, “PPAR agonist compounds, preparation and uses” (Genfit, priority 2008, dated 2013).

For assay [1], the system named is db/db mouse. Nature of the assay: Antidiabetic character in the db/db mouse: plasma glycemia, insulinemia, HOMA index. Type of assay: in vivo. The note with it: 30 mpk oral, 8 days. The protocol: (§1) The aim of this study is to evaluate in vivo the antidiabetic character of the compounds according to the invention, in the db/db mouse (Berger J et al., 1996). The antidiabetic effect of the compounds is evaluated by measuring glycemia and insulinemia after 8 days of treatment. In diabetic animals (as in humans), administration of glucose leads to a significant increase in the plasma level of insulin. This induced hyperinsulinemia causes a lowering of glycemia, which is delayed in insulin-resistant animals, for example in the db/db mouse.
Male db/db mice (CERJ—Le Genest St Isle-France) are used for this experiment. After acclimation for one week, the mice were weighed and put into groups of 8 animals, selected in such a way that the distribution of their bodyweight and of their fasting glycemia determined for the first time before the experiment are uniform. The compound tested was suspended in carboxymethylcellulose (Sigma C4888) and administered by stomach tube, at a rate of once a day for 9 days at the chosen dose. The animals had free access to water and food (standard diet) and were housed in ventilated cages with a rhythm of light and darkness of 12 hours/12 hours at a constant temperature of 20±3° C. The food intake and weight gain were recorded throughout the experiment. After administration of the compound for 8 days, a blood sample was taken by puncture in the retro-orbital sinus of the animals under volatile anesthesia with isoflurane in order to measure the plasma concentrations of glucose and insulin.
Assay of murine insulin is carried out by the Elisa method (Insulin Elisa Kit-Crystal Chem. USA). A mouse anti-insulin antibody is fixed on a microplate. The serum to be assayed for insulin is then deposited on this plate. A guinea pig anti-insulin antibody will recognize the insulin/mouse monoclonal anti-insulin antibody complex and bind to it. […]
(§2) Glucose was determined by enzyme assays (bioMérieux-Lyons-France) according to the suppliers recommendations.

For assay [2], the system named is db/db mouse. The assay can be described thus: Glucose tolerance test in the db/db mouse. The note with it: 30 mpk, treated 9 days, oral glucose 1 g/kg after fasting. Type of assay: in vivo. The protocol:
as §1
After 9 days, the animals were deprived of food for 16 hours before carrying out the glucose tolerance test. The latter consists of a single administration of glucose after fasting (administered orally at a dose of 1 g/kg). Blood samples were then taken from time to time to study the evolution of plasma glycemia.
as §2

In assay [3] the test system is PPARδ target genes (PDK4, CPT1b, UCP2) in murine myocytes. Nature of the assay: Expression of PPARδ target genes in murine myocytes (differentiated C2C12 cells). Type of assay: cell-based. The note with it: 24 hours, Cpd 7 at 0.1, 1, 10 μM, Cpd 24 at 0.2, 2, 20 μM, normalized to 36B4. As for the experimental part: The PPARδ agonist properties previously measured in vitro were evaluated by measuring, in murine myocytes, the expression of genes involved in lipid and carbohydrate metabolism and energy expenditure (PDK4, CPT1b, UCP2). Regulation of expression of these genes, in this cell type, is a direct consequence of the activation of PPARδ by the compounds according to the invention. The greater the increase in expression of the genes, the more the compound according to the invention is a stimulator of metabolism in muscle cells (Dressel U et al., 2003).
The C2C12 murine cells (from ECACC) are cultivated in DMEM medium (Gibco; 41965-039) supplemented with 1% L-glutamine (Gibco; 25030), 1% penicillin/streptomycin (VWR; BWSTL0022/100) and 10% decomplemented fetal calf serum (FCS. Gibco; 10270-106).
The cells are seeded in 24-well plates at a density of 50×10^3 cells/well. At confluence, the medium is replaced with a differentiation medium (base culture medium supplemented with 2% of horse serum (Gibco; 26050-088)) then culture is continued at 37° C. and 5% CO2 for 7 days in order to permit differentiation of the myoblasts into myocytes.
After 6 days of differentiation, the cells are put in a deprivation medium (base culture medium without serum) for 6 hours. The cells are then treated with the compounds according to the invention in the deprivation medium. The compounds according to the invention were tested at doses of 0.1, 1, 10 μM and 0.2, 2 and 20 μM respectively. The compounds according to the invention were dissolved in dimethylsulfoxide (DMSO, Sigma; D5879). The cells are treated for 24 hours at 37° C., 5% CO2. The effects for the compounds tested were compared with the effect of DMSO alone at a concentration of 0.1%.
These procedures were performed on the cells essentially as described in Example 10 (point c) of the Protocols.
The following primer pairs specific to the genes investigated were used: […]

For assay [4], the system named is 3T3-L1 murine pre-adipocytes. The assay can be described thus: PPARγ functional effect: adipogenesis in 3T3-L1 pre-adipocytes (triglycerides, adiponectin). Type of assay: cell-based, Mus musculus. The note with it: 3T3-L1, 9 days of treatment, 30 nM to 30 μM. The protocol: The functional effect of activation of PPARγ is evaluated in vitro on a line of pre-adipocyte cells 3T3-L1 (Thompson G M et al., 2004) by measuring the concentration of intracellular triglycerides and the concentration of adiponectin secreted in the culture medium after 9 days of treatment with the compounds according to the invention.
At confluence, the cells were then rinsed with PBS (Phosphate Buffered Saline solution) and the culture medium was replaced with DMEM 4.5 g/L glucose (10% FCS, 1% L-glutamine, 100 units/mL penicillin and 100 μg/mL streptomycin, 0.25 mM) containing a cocktail for initiation of adipocyte differentiation (IBMX (3-isobutyl-1-methylxanthine Sigma; 17018), 0.1 μM dexamethasone (Sigma; D1756) and 0.4 μM of insulin (Sigma; I2643). The cells were also treated with the compounds according to the invention (1 μL of solubilized compound/mL of medium, 200 μL per well).
After 2 days of incubation, the cells were washed with PBS and the differentiation medium was replaced with DMEM 4.5 g/L of glucose supplemented with 10% FCS, 1% L-glutamine, 100 units/mL penicillin and 100 μg/mL streptomycin, 0.4 μM insulin, and the compounds according to the invention for the purpose of completing cellular differentiation and obtaining adipocytes. The medium was changed every 2 days until total differentiation. After culture for 9 days, the treatment was stopped by withdrawing the culture medium, which was stored for assaying secreted adiponectin. The cells were then washed twice with PBS and placed in isopropanol for membrane permeabilization. The content of intracellular triglycerides was evaluated immediately.
Quantification of intracellular triglycerides was performed with the “Triglyceride Enzymatic PAP1000” kit (bioMérieux; 61238) according to the supplier's recommendations. Secreted adiponectin was measured in the culture medium using the “Mouse Adiponectin/Acrp30 Elisa Kit” kit (R&D Systems; DY1119) according to the supplier's recommendations.

For the compound `COc1nc(-c2ccc(C(F)(F)F)cc2)ccc1COc1ccc(OCC(=O)O)cc1` [Cpd 24, 2-(4-((2-methoxy-6-(4-(trifluoromethyl)phenyl)pyridin-3-yl)methoxy)-phenoxy)ethanoic acid], in assay [1], the “glycemic profile (plasma glucose)” value is “overall improvement” and the “insulinemic profile (plasma insulin)” value was “overall improvement”. The HOMA index result in assay [1] (calculated from plasma glucose and insulin) is recorded as “decrease”. For the same compound, the “glucose tolerance test (insulin resistance)” value in assay [2] was “marked decrease in insulin resistance”. Moreover, in assay [3], the “expression of CPT1b” value is given as “significant effects of stimulating expression”, the “expression of PDK4” value is reported as “significant effects of stimulating expression” and the “expression of UCP2” value is listed as “significant effects of stimulating expression”. Moreover, in assay [4], the “accumulation of triglycerides in adipocytes” value is listed as “dose-dependent stimulation” and the secretion of adiponectin result is “dose-dependent stimulation”.
Regarding `COc1nc(-c2ccccc2)ccc1CNc1ccc(CCC(=O)O)cc1` [Cpd 19, 3-(4-(((2-methoxy-6-phenylpyridin-3-yl)methyl)amino)phenyl)propanoic acid], in assay [4], the “accumulation of triglycerides in adipocytes” value is recorded as “dose-dependent stimulation” and the secretion of adiponectin result is listed as “dose-dependent stimulation”.
